Reference: ChEMBL document CHEMBL3045195, “Comparison of the activity of non-steroidal ecdysone agonists between dipteran and lepidopteran insects, using cell-based EcR reporter assays” (Pest Manag Sci, 2010)
Calls of active or inactive are those of the source. The rule behind the calls is not given here.

What was measured:
[1] = target: T1, Ecdysone receptor (Drosophila melanogaster) (UniProt P34021+P20153); test: Agonist activity at ecdysone receptor in Drosophila melanogaster S2 cells at 100 uM after 24 hr by luciferase reporter gene assay relative to 20-hydroxyecdysone; format: cell-based
[2] = target: T2, Ecdysone receptor (Drosophila melanogaster, UniProt P20153+P34021); test: (§1) Agonist activity at ecdysone receptor in Drosophila melanogaster S2 cells after 24 hr by luciferase reporter gene assay; format: cell-based
T2 sequence (P34021 whole entry): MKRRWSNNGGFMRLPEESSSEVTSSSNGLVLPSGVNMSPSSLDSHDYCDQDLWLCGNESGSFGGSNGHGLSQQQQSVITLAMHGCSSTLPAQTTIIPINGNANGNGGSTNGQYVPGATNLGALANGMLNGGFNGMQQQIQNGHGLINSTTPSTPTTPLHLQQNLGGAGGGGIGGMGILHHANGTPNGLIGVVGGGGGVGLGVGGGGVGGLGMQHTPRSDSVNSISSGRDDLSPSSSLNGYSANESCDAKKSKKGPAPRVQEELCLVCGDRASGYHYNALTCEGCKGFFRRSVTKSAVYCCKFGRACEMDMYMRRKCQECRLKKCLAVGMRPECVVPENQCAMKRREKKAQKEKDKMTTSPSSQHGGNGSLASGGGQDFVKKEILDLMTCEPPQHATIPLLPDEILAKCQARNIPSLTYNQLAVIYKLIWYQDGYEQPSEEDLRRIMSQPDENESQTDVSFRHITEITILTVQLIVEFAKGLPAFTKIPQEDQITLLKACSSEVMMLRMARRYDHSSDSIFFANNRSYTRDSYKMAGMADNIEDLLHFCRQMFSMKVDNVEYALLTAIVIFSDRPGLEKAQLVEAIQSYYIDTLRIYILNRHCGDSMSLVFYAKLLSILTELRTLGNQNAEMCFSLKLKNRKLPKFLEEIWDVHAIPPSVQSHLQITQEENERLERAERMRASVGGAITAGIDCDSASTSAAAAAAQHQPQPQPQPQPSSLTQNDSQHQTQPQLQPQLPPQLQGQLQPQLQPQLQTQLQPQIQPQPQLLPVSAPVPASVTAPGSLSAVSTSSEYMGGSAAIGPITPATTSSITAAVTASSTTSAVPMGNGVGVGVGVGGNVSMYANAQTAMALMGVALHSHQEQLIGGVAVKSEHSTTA
T2 sequence (P20153 whole entry): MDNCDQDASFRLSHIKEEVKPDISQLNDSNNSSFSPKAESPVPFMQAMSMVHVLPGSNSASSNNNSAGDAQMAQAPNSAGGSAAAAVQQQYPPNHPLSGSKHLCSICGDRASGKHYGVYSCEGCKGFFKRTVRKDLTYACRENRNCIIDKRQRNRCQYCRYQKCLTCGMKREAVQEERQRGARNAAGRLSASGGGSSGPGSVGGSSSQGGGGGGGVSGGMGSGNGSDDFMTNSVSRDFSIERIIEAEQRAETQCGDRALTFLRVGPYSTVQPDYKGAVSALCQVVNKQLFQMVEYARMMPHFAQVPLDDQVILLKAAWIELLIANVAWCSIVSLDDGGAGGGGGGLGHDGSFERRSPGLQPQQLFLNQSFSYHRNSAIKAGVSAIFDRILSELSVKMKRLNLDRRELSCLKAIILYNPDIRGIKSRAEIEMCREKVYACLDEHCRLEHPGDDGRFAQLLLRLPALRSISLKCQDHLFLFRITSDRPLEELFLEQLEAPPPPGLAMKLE

[3] = target: T2, Ecdysone receptor; test: Agonist activity at ecdysone receptor in Drosophila melanogaster B2 cells assessed as reduction in cell density
[4] = target: T3, Ecdysone receptor (Bombyx mori, UniProt P49881); test: (§2) Agonist activity at ecdysone receptor in Bombyx mori Bm5 cells after 24 hr by luciferase reporter gene assay; format: cell-based
T3 sequence (P49881 whole entry): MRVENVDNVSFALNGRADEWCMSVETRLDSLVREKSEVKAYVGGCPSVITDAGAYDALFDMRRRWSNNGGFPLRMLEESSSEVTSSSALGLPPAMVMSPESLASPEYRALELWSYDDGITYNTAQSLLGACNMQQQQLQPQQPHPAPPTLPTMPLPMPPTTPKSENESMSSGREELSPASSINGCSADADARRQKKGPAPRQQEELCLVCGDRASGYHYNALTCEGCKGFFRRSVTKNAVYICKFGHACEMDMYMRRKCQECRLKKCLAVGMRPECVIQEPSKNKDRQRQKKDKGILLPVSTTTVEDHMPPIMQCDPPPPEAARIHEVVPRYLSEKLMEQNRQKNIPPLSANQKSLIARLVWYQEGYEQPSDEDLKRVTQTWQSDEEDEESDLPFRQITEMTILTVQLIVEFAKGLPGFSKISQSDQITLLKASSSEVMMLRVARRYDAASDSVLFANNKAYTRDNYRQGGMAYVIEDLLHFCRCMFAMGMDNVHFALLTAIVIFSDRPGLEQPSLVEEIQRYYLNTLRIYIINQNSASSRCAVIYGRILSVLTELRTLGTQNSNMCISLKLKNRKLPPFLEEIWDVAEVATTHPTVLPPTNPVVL

[5] = target: T1, Ecdysone receptor (Drosophila melanogaster); test: Agonist activity at ecdysone receptor in Drosophila melanogaster S2 cells at 10 uM after 24 hr by luciferase reporter gene assay relative to 20-hydroxyecdysone; format: cell-based
[6] = Cytotoxicity against Drosophila melanogaster S2 cells at 10 to 100 uM after 24 hr by CellTiter assay; format: cell-based; settings: s2, 24 h
[7] = target: T1, Ecdysone receptor (Drosophila melanogaster); test: as §1; format: cell-based
[8] = target: T4, Ecdysone receptor (Bombyx mori) (UniProt P49881); test: as §2; format: cell-based
T4 sequence (whole entry): T3 sequence (P49881 whole entry)

Row | Compound | Efficacy [1] [%] | EC50 [2] [nM] | EC50 [3] [nM] | EC50 [4] [nM] | Efficacy [5] [%] | Activity [6] | pEC50 [7] | pEC50 [8]
1 | CC(C)(C)N(NC(=O)c1ccccc1)C(=O)c1ccccc1C(F)(F)F | 63 | 33900 | 3630 | 631 |  |  |  | 
2 | CC(C)(C)N(NC(=O)c1ccccc1)C(=O)c1ccccc1I | 52 | 91200 | 1200 | 105 |  |  |  | 
3 | CCc1ccc(C(=O)NN(C(=O)c2cc(C)cc(C)c2)C(C)(C)C)cc1 [TEBUFENOZIDE] |  | 6610 | 525 | 1.23 | 52 | Non-toxic |  | 
4 | Cc1ccc(C(=O)NN(C(=O)c2cc(C)cc(C)c2)C(C)(C)C)cc1 |  | 11200 |  | 12 | 46 |  |  | 
5 | Cc1cc(C)cc(C(=O)N(NC(=O)c2ccc(Cl)cc2)C(C)(C)C)c1 |  | 16600 |  | 19.1 | 42 |  |  | 
6 | CCCc1ccc(C(=O)NN(C(=O)c2ccccc2Cl)C(C)(C)C)cc1 |  | 9770 |  | 9.12 | 52 |  |  | 
7 | Cc1ccc(NC2CCN(C(=O)c3ccc(Cl)cc3)c3ccccc32)cc1 (centres undefined) |  |  |  |  |  |  | inactive | inactive
8 | Cc1ccc(NC2CCN(C(=O)c3ccc(Cl)cc3)CC2)cc1 |  |  |  |  |  |  | inactive | inactive
9 | CC(C)(C)N(NC(=O)c1ccccc1)C(=O)c1ccccc1F | 62 | 72400 | 6170 | 309 |  |  |  | 
10 | CCc1ccc(C(=O)NN(C(=O)C2CCCCC2)C(C)(C)C)cc1 |  |  |  | 9330 |  |  | inactive | 
11 | CCCCCCCC(=O)NN(C(=O)c1cc(C)cc(C)c1)C(C)(C)C |  |  |  | 97.7 |  |  | inactive | 
12 | CC(C)(C)N(NC(=O)c1ccccc1)C(=O)c1ccccc1[N+](=O)[O-] | 86 | 15500 | 1100 | 224 |  |  |  | 
13 | CC(C)(C)N(NC(=O)c1ccc(Cl)cc1)C(=O)c1ccccc1 [HALOFENOZIDE] | 57 | 7760 |  | 87.1 |  | Non-toxic |  | 
14 | CC(C)(C)N(NC(=O)c1ccccc1)C(=O)c1ccccc1 [RH-5849] | 62 | 37200 | 1820 | 427 |  | Non-toxic |  | 
15 | CCCCCC(=O)N(NC(=O)c1cc(C)cc(C)c1)C(C)(C)C |  |  |  | 8710 |  |  | inactive | 
